Results as given in ChEMBL document CHEMBL5465560, “Selectivity Literature for EUbOPEN Chemogenomic Library” (2024).
One block for each compound: values may come before it.

Experiments:
[1] = biological target: T1, 5-hydroxytryptamine receptor 1A (Homo sapiens) (UniProt P08908); assay: Selectivity interaction (Panel of non-epigenetic targets (kinases, GPCRs, ion channels, and transporters, Eurofins) ) EUB0000271b HTR1A; details: at 1 µM
T1 sequence (whole entry): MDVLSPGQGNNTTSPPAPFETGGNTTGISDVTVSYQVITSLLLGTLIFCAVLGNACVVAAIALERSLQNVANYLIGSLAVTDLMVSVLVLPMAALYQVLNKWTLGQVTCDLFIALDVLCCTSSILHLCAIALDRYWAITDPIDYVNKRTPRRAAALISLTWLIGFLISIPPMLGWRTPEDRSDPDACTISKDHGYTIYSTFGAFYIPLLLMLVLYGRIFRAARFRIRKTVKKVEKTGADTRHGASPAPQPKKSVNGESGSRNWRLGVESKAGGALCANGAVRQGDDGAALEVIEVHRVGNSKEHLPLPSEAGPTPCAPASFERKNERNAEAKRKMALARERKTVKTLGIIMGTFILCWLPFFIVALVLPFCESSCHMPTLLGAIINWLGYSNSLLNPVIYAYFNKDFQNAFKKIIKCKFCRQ

[2] = biological target: Serine/threonine-protein kinase pim-3 (Homo sapiens) (UniProt Q86V86); assay: Selectivity interaction (Kinase panel (DSF assay)) EUB0001559a PIM3
[3] = biological target: T2, Bone morphogenetic protein receptor type-2 (Homo sapiens) (UniProt Q13873); assay: Selectivity interaction (KinomeScan (DiscoverX)) EUB0000618a BMPR2; details: at 10 µM
T2 sequence (whole entry): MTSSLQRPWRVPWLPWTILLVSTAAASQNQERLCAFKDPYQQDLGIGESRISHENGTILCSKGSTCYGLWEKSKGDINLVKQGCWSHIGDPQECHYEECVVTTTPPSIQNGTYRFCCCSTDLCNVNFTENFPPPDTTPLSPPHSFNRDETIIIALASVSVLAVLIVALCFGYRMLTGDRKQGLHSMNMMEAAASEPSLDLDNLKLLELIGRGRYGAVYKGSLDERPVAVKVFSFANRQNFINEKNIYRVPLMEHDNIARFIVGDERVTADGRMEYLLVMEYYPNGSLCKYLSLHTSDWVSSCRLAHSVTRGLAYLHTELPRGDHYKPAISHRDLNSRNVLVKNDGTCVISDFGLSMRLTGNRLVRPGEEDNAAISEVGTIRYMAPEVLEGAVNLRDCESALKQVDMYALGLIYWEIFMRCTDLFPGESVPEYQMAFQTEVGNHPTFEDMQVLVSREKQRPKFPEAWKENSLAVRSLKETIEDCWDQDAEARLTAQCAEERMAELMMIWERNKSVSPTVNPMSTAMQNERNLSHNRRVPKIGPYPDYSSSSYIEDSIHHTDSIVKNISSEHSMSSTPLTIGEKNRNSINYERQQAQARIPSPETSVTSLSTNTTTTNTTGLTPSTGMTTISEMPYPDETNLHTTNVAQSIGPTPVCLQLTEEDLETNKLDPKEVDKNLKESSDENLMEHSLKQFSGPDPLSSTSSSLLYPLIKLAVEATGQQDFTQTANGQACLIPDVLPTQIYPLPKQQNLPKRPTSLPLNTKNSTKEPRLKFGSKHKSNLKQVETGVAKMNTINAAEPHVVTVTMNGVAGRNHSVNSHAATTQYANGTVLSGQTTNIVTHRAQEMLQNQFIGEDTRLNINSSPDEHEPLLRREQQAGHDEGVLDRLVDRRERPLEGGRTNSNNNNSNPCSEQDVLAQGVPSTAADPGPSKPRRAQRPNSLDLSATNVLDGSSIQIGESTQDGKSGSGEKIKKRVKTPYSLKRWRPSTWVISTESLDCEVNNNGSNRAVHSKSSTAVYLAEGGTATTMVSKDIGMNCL

[4] = biological target: Mitogen-activated protein kinase kinase kinase 20 (Homo sapiens) (UniProt Q9NYL2); assay: Selectivity interaction (KinomeScan (DiscoverX)) EUB0001619a MAP3K20; details: at 1 µM
[5] = biological target: T3, Ephrin type-A receptor 1 (Homo sapiens) (UniProt P21709); assay: Selectivity interaction (KinomeScan (DiscoverX)) EUB0000595a EPHA1; details: at 10 µM
T3 sequence (whole entry): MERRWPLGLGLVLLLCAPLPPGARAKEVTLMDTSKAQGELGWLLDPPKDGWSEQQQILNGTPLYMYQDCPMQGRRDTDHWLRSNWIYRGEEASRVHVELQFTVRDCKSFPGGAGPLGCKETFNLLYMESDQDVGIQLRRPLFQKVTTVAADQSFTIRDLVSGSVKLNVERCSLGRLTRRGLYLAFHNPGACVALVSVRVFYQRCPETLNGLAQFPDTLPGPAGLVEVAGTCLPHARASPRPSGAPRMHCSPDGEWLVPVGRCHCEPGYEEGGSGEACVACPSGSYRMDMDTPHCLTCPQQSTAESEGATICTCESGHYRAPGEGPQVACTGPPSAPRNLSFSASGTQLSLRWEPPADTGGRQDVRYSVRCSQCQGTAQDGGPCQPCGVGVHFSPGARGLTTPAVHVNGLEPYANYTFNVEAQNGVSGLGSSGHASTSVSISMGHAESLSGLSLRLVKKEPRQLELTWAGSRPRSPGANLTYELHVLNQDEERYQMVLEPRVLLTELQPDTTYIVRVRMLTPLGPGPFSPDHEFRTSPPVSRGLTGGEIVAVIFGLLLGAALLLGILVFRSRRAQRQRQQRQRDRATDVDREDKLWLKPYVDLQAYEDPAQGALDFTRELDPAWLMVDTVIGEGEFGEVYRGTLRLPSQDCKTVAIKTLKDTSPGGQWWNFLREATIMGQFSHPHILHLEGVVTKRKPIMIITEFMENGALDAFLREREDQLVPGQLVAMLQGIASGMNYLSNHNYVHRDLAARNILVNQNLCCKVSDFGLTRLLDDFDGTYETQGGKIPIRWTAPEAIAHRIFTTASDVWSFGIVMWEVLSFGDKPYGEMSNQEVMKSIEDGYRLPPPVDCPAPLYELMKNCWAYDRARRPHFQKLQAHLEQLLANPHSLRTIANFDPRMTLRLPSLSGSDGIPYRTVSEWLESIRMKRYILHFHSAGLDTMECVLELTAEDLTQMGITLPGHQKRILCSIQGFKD

[6] = biological target: Mitogen-activated protein kinase kinase kinase 8 (Homo sapiens, UniProt P41279); assay: Selectivity interaction (Kinase panel (33PanQinase(R) Activity Assay)) EUB0000877a MAP3K8
Chain of Mitogen-activated protein kinase kinase kinase 8 (P41279 whole entry): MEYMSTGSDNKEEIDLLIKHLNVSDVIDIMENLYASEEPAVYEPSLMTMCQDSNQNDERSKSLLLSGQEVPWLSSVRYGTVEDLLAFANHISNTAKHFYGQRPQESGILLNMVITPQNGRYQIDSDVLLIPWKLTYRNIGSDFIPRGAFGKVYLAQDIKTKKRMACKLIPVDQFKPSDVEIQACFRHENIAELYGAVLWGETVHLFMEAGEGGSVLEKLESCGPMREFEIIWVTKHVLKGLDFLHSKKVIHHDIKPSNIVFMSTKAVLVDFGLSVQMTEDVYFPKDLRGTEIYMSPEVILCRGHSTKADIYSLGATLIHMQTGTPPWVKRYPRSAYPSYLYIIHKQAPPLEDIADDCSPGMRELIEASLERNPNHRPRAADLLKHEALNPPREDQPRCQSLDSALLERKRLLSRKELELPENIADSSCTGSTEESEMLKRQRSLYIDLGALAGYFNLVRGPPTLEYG

Chain of Mitogen-activated protein kinase kinase kinase 20 (Homo sapiens) (Q9NYL2 2-800 limits assumed): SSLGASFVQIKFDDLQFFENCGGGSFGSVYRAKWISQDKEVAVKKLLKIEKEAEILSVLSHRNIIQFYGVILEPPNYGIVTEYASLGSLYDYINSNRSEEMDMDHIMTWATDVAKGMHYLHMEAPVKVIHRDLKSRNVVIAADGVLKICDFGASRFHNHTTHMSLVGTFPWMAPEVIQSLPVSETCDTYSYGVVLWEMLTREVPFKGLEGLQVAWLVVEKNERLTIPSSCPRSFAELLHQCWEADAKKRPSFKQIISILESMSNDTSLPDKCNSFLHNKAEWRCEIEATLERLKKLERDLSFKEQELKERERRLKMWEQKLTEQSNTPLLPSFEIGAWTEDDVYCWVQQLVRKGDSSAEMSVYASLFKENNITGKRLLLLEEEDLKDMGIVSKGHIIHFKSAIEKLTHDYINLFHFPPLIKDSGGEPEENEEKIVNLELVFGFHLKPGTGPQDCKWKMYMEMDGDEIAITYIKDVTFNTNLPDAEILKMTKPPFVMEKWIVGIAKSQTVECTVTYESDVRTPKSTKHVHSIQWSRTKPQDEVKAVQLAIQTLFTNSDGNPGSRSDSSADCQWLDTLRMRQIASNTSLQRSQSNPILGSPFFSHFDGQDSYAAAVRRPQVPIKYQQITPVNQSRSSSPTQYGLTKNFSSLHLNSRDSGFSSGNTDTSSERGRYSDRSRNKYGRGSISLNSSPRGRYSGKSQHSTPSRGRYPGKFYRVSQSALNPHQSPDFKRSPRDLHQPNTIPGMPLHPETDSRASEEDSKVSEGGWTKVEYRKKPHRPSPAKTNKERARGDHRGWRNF

Structure (SMILES): Cc1cc(C)cc([C@@H]2c3cc(C)ccc3NC(=O)CN2C(=O)c2ccc(Br)s2)c1
% of inhibition [1]: 5%

dTM [2]: -0.4 K
Structure (SMILES): CN(C(=O)c1cnn2cccnc12)c1cc2c(cc1N1CCOCC1)C(=O)N(C[C@@H](F)C(C)(C)O)C2

Structure (SMILES): O[C@H]1CC[C@H](Nc2ncc3nc(Nc4c(F)cc(F)cc4F)n([C@H]4CCOC4)c3n2)CC1
% of control [3]: 78%

Structure (SMILES): N#Cc1cccc(-c2c[nH]c3ncnc(N4CCOCC4)c23)c1
% of control [4]: 86%

Structure (SMILES): COCC(=O)NC/C=C/c1ccc2ncnc(Nc3ccc(Oc4ccc(C)nc4)c(C)c3)c2c1 [CP-724714]
% of control [5]: 88%

IC50 [6]: > 10 µM
Structure (SMILES): CCC(=O)N1CC[C@H](Nc2ncnc3c2CN(c2cnc(OC)c(C(F)(F)F)c2)CC3)C1 [LENIOLISIB]
